Test results published in the METLIN SMRT retention time set (Domingo-Almenara et al. 2019).

assay: gradient 5% acetonitrile 3 min, to 50% in 2 min, to 85% in 15 min, held 3 min, 100 µL/min; conditions: column: Zorbax Extend-C18 2.1 x 50 mm; eluents: water / acetonitrile, 0.1% formic acid
Summary of the method: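 Pure standards were analyzed in mixtures of ~100 molecules using HPLC coupled to a quadrupole time-of-flight mass spectrometer, in both positive and negative ionization mode. Separation used a Zorbax Extend-C18 column (2.1 × 50 mm, 1.8 μm) at 100 μL/min, with water and acetonitrile each containing 0.1% formic acid. Dead and dwell volumes were 40 μL and 900 μL, and data were collected over 3 months. Retention time was read from computationally picked adduct peaks, each inspected manually.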

| RP-LC retention time | Structure (SMILES) |
| --- | --- |
| 599 s | CNC(=O)CSc1nnc(N2CCN(C(=O)c3cc(=O)c4ccccc4o3)CC2)s1 |
| 934 s | Cc1cc(Cl)ccc1NC(=O)CN(C)S(=O)(=O)c1cc(C(=O)N2CCC(C)CC2)n(C)c1 |
| 798 s | Cc1ccccc1NC(=O)Cn1nc2nc(N3CCCC(C)C3)ccn2c1=O (configuration not stated) |
| 805 s | CC1=C(c2ccccc2)S(=O)(=O)N=C1N1CCCN(C(=O)c2ccc(F)cc2)CC1 |
| 984 s | CCc1nc(-c2csc(S(=O)(=O)N3CCC(C(=O)Nc4cccc(Cl)c4C)CC3)c2)no1 |
| 819 s | CCOCCCNC(=O)C1CCN(c2cc(Oc3cccc(C)c3C)ncn2)CC1 |
| 742 s | COc1cccc(CNC(=O)Cn2c(=O)c3cc(C4CC4)nn3c3ncccc32)c1 |
| 702 s | Cc1ccccc1Nc1c(-c2ccc(N3CCOCC3)cc2)nc2cccc(C)n12 |
| 713 s | Nc1cc(C2CCN(C(=O)c3cc4ccccc4[nH]3)CC2)no1 |
| 693 s | Cc1ncsc1C1N(C2CCN(Cc3cn(C)c4ccccc34)CC2)C(=O)C12CCCC2 (configuration not stated) |
| 849 s | CC1=C(c2ccccc2)S(=O)(=O)N=C1N1CCCN(C(=O)Nc2cccc(F)c2)CC1 |
| 1010 s | Cn1c(=O)c(N2CCC(NC(=O)Nc3cccc(C(F)(F)F)c3)CC2)nc2ccccc21 |
| 1130 s | COC(=O)c1ccc2c(=O)n(-c3cccc(C)c3)c(N3CCSC3)nc2c1 |
| 759 s | CCn1c(=O)c(N2CCC(NC(=O)NC)CC2)nc2ccccc21 |
| 654 s | CCC(CC)C(=O)Nc1c(-c2ccccc2)nc2cc(C)ccn12 |
| 695 s | Cc1ccc(C(=O)Nc2ccc3c(N4CCCCC4)ncnc3c2)s1 |
| 691 s | CCC(C(=O)NCCCN1CCCCC1)n1nc(C)c2sc3ccccc3c2c1=O (configuration not stated) |
| 898 s | CC1=C(c2ccc(C)cc2)S(=O)(=O)N=C1N1CCCN(C(=O)c2cccc(C)c2)CC1 |
| 586 s | Cc1cn(C)c(CC(=O)NCCCN2CCCC(C)C2)c1C(=O)O (configuration not stated) |
| 802 s | CCOC(=O)c1c(C)[nH]c(C(=O)N2CCC(CC(=O)NCc3ccccc3C)CC2)c1C |
| 910 s | Cc1ccccc1CC(=O)Nc1ccc2c(c1)CCC(=O)N2CC(C)C |
| 1040 s | Cc1ccc(-c2nc3n(CC(=O)N4CCCCC4C)c4c(c(=O)n3n2)CCC4)cc1 (configuration not stated) |
| 754 s | Cc1ccc(-n2nc3c(N4CCCC(C(=O)NCc5ccccc5)C4)nnc(C)c3c2C)cc1 (configuration not stated) |
| 602 s | Cc1cc(S(=O)(=O)N2CC(c3nc(-c4ccccc4)nn3C)C2)ccc1F |
| 675 s | CCOC(=O)CCNC(=O)N1CCN(Cc2nc3cc(-c4ccccc4)ccc3o2)CC1 |
| 817 s | CCc1ccc(NC(=O)CN2C(=O)C3CCCCN3c3ccc(S(=O)(=O)N(C)C)cc32)cc1 (configuration not stated) |
| 967 s | O=C(Nc1ccc(Br)cc1F)C1CCCN(c2cc(-n3cccn3)ncn2)C1 (configuration not stated) |

Second part, the compound before the results:

| Structure (SMILES) | RP-LC retention time |
| --- | --- |
| Cc1sc(-c2nnc(C(=O)N3CCCC3)o2)cc1S(=O)(=O)NCc1cccnc1 | 1310 s |
| COc1ccc(C(=O)NCCc2sc(-c3cccc(F)c3)nc2C)c(OC)c1 | 921 s |
| COc1ccc(C(=O)N2CC(N3CC(C(=O)N4CCCC4)CC3=O)C2)cc1F (configuration not stated) | 639 s |
| COc1ccc(C2c3sc(=O)[nH]c3SC3C(=O)N(CC(=O)O)C(=O)C32)cc1 (configuration not stated) | 632 s |
| COc1ccccc1NC(=O)[C@H]1[C@H]2C=C[C@]3(CN(Cc4cccnc4)C(=O)[C@@H]13)O2 | 597 s |
| CCc1noc(C2(NC(=O)COc3ccc(Cl)cc3)CCCCC2)n1 | 1040 s |
| CC(CNC(=O)C1CCN(S(=O)(=O)c2ccc3c(c2)CCCC(=O)N3)CC1)c1ccccc1 (configuration not stated) | 766 s |
| COc1ccc(NC(=O)CSc2nccnc2-n2nc(C)cc2C)cc1OC | 702 s |
| Cc1cc(C)nc(NS(=O)(=O)c2ccc(NC(=O)NC3CCCCC3)cc2)n1 | 686 s |
| O=C(NC1CCCC1)C1CCN(c2cncnc2N2CCCCC2)CC1 | 641 s |
| COc1ccc(Cl)cc1NC(=O)c1sc(-c2cn(C)c3ncccc23)nc1C | 1220 s |
| O=C1COc2ccc(-c3csc(NC(=O)c4ccc(F)cc4)n3)cc2N1 | 838 s |
| CCc1cccc(N2C=C(C(=O)OC)S(=O)(=O)c3ccccc32)c1 | 930 s |
| CS(=O)(=O)N1CC[C@H]2CN(Cc3cn[nH]c3-c3ccccc3)C[C@@]2(CF)C1 | 592 s |
| COc1ccc(-n2c(=O)n(C)c(=O)c3cc(C(=O)NC(C)c4ccccc4)cnc32)cc1 (configuration not stated) | 871 s |
| CC(O)CCC(=O)NCCc1nc2ccccc2n1Cc1ccccc1F (configuration not stated) | 566 s |
| O=C(NCCN1CCCCC1)c1ccc(-c2ccc(N3CCSCC3)nc2)cc1 | 591 s |
| COc1ccc(NC(=O)N(C)CCc2noc(COc3ccc(Cl)cc3)n2)cc1 | 1010 s |
| CCn1cc(C(=O)Nc2cccc(Cl)c2)c(S(=O)(=O)N2CCSCC2)n1 | 890 s |
| Cc1ccc(-c2nnc(-c3nc(NCCc4ccco4)c4ccccc4n3)o2)cc1 | 1030 s |

| Structure (SMILES) | RP-LC retention time |
| --- | --- |
| Cn1cc(C2=CCN(C(=O)c3cccc(Cl)c3)CC2)c2cccnc21 | 901 s |
| COc1cc(NC(=O)NC2COc3ccccc3C2)cc(OC)c1OC (configuration not stated) | 773 s |
| Cc1nc(-c2cccc(F)c2)sc1C(=O)NC(C)C | 936 s |
| COc1ccc2nc(N3CC(C(=O)N4CCc5cc(OC)c(OC)cc5C4)C3)sc2c1 | 661 s |
| COc1ccc(OC)c(S(=O)(=O)N2CC(=O)N(C3CCCC3)C3(CCCCC3)C2)c1 | 1090 s |
| CSc1ccc(-c2nc3ncccn3c2Nc2ccccc2)cc1 | 777 s |
| Cc1nnsc1C(=O)N1CCc2nc(NC(=O)C3CC3)sc2C1 | 630 s |
| CCC(CC)NC(=O)C1CCCCc2nnc(C(C)C)n21 (configuration not stated) | 664 s |
| Cc1ccc(-n2c(CN3CCN(C(=O)Nc4ccc5c(c4)OCCO5)CC3)nc3cccnc32)cc1 | 676 s |
| Cc1ccc(CNC(=O)C2CCN(S(=O)(=O)c3ccc(-c4noc(C5CC5)n4)cc3)CC2)o1 | 938 s |
| CCN1C(=O)c2cc(S(=O)(=O)Nc3ccc(Cl)cc3F)ccc2Oc2cccnc21 | 1070 s |
| Cc1c(-c2cc(NS(=O)(=O)c3ccccc3Cl)n(C)n2)sc2ccc(Cl)cc12 | 1160 s |
| CCOC(=O)CN1CCC(c2nnc(-c3ccc(F)cc3)o2)CC1 | 555 s |
| COc1ccc(-c2nnc(CC(=O)NCCC3=CCCCC3)o2)cc1 | 889 s |
| Cc1ccc(NC(=O)c2cn(-c3cc(N(C)C)ncn3)cn2)cc1 | 832 s |
| CCc1ccc2nc(Nc3ncc4c(n3)CC(c3ccc(OC)cc3)CC4=O)nc(C)c2c1 (configuration not stated) | 820 s |
| CN(C)C(=O)c1cn(C2CN(S(=O)(=O)c3ccc4c(c3)CCC4)C2)nn1 | 774 s |
| COc1cc([C@H]2c3cc4c(cc3[C@@H](O)[C@H](CO)[C@H]2C(=O)Nc2cnccn2)OCO4)cc(OC)c1OC | 626 s |
| Cc1nc(-c2ccc(C(=O)N(C)C)c(F)c2)no1 | 693 s |
| Cn1cccc1CN(C(=O)COc1ccc(Cl)cc1Cl)C1CC1 | 1040 s |

| Structure (SMILES) | RP-LC retention time |
| --- | --- |
| CCc1nn2c(CNS(=O)(=O)c3ccccc3Cl)c(-c3ccccc3)nc2s1 | 1000 s |
| COC(=O)C(C)Sc1nc2c(c(=O)n1-c1ccc(OC(F)(F)F)cc1)SCC2 (configuration not stated) | 949 s |
| CCCCN1CCN(C(=O)c2cc(NC(=O)C3CCC3)cc3nc(C)ccc23)CC1 | 551 s |
| COc1ccc(-c2nc3cccnc3n2C2CCN(C(=O)c3ccco3)C2)cc1 (configuration not stated) | 685 s |
| Cc1cccc(OCc2nc(-c3ccc4c(c3)nnn4CCC(=O)N3CCCC3)no2)c1 | 923 s |
| COC(=O)c1ccc2nc(NC(=O)C3CCCCC3)sc2c1 | 932 s |
| CCC(=O)c1ccc(OCC(O)CN(CC)Cc2ccccc2)cc1 (configuration not stated) | 566 s |
| CCn1cc(S(=O)(=O)NCCn2c(C)cnc2-c2ccccc2)cn1 | 560 s |
| CN1CC(=O)N(CC(=O)Nc2ccc(-c3nc4ccccc4[nH]3)cc2)c2ccccc2C1=O | 607 s |
| COc1ccc2c(CCNC(=O)c3ccc4c(c3)OCCO4)c[nH]c2c1 | 684 s |
| COc1cc(Cl)c(NC(=O)C2CCCN(C(=O)c3cc(-c4ccncc4)n[nH]3)C2)c(OC)c1 (configuration not stated) | 642 s |
| CCOC(=O)c1[nH]c(C)c(C(=O)N2CCC(CC(=O)NC3CC3)CC2)c1C | 628 s |
| COc1ccc(N2CCN(C(=O)c3ccc(-c4ccsc4)nc3)CC2)cc1 | 1160 s |
| CCOc1ccc(OCC)c(NC(=O)c2cn3c4c(ccc(Cl)c4c2=O)OCC3)c1 | 1100 s |
| Cc1cc(C)c(C(=O)N2CCC(CC(=O)NCCC(C)C)CC2)[nH]1 | 764 s |
| O=C(Nc1ccc2c(c1)N(C(=O)c1ccccc1)CCC2)c1cccs1 | 876 s |
| CC(NC(=O)c1ccccn1)C(=O)Nc1nc2ccccc2[nH]1 (configuration not stated) | 608 s |
| COC(=O)c1ccc(NC(=O)c2ccc(-n3ccnc3C)nn2)cc1 | 561 s |
| CS(=O)(=O)N1CCCN(C(=O)Nc2ccccc2)CCNC(=O)CC1c1ccccc1 (configuration not stated) | 698 s |
| Cc1nc(-c2cnccn2)nc2c1CCC(=O)N2Cc1ccco1 | 683 s |
